Laboratory results: paper PMC4298791 (Angewandte Chemie (International Ed. in English), 2014)
Like-named read-outs stand apart in the source and are kept apart here. Values belong to the compound of their own block, whether it stands above or below them.

Tests used:
[1] = biological target: T1, CREBBP bromodomain (Homo sapiens, UniProt Q92793); experiment: AlphaScreen peptide displacement assay; format: binding
T1 construct: amplify the bromodomain region of the; made in house
Method: AlphaScreen Peptide Displacement Assay: Bromodomain AlphaScreen assays were carried out as
previously described.11,34 All experiments were carried out in duplicate and, within a table, on the same plate. […]

[2] = biological target: T2, BAZ2B (Homo sapiens, UniProt Q9UIF8); experiment: Differential scanning fluorimetry (ΔTm); settings: read-out: ΔTm BAZ2B
T2 sequence (Q9UIF8 2060-2164 limits assumed): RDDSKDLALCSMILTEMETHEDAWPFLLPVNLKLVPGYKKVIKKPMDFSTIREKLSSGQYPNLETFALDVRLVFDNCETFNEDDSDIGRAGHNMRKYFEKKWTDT

[3] = biological target: T3, TIF1α (Homo sapiens, UniProt O15164); experiment: Differential scanning fluorimetry (ΔTm); settings: read-out: ΔTm TIF1α
T3 sequence (O15164 899-1004 limits assumed): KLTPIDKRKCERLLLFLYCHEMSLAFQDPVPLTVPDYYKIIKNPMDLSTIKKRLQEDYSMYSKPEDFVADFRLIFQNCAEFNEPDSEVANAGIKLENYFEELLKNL

[4] = biological target: BRD4(1) (Homo sapiens, UniProt O60885); experiment: Isothermal titration calorimetry (ITC); format: binding; settings: 15 °C
Method: (§1) Isothermal Titration Calorimetry (ITC): Experiments were carried out on a VP-ITC titration microcalorimeter from MicroCal™ , LLC (Northampton, MA) with a cell volume of 1.4189 ml and a 250 µl microsyringe equipped with a ThermoVac module.
(§2) The microsyringe was loaded with a solution of the protein sample (200-500 µM protein in ITC buffer) and was carefully inserted into the calorimetric cell which was filled with an amount of the ligand ([…], 20-30 µM in ITC buffer). The system […]
(§3) applied. All titrations were conducted using an initial control injection of 2 µl followed by up to 34 identical injections of 8 µl with a duration of 4 sec per injection and a spacing of 250 sec between injections. The titration experiments were designed in such a fashion, as to ensure complete saturation of the enzymes before […]
(§4) corrected for protein heats of dilution (measured on separate experiments by titrating the proteins into ITC buffer) and deconvoluted using the MicroCal™ Origin software supplied with the instrument to yield enthalpies of binding (∆H) and binding constants (KB) in the same fashion to that previously described in detail by Wiseman and coworkers.35 Thermodynamic parameters were calculated using the basic equation of thermodynamics (∆G = ∆H − T∆S = −RTlnKB, where ∆G, ∆H and ∆S are the changes in free energy, enthalpy […]
(§5) and entropy of binding respectively).
(§6) MicroCal™ Origin software package.

[5] = biological target: T1, CREBBP bromodomain; experiment: Isothermal titration calorimetry (ITC); format: binding; settings: 15 °C
Method: as §1, §2, §3, §4, §5, §6

[6] = biological target: T4, BRPF3 (Homo sapiens, UniProt Q9ULD4); experiment: Differential scanning fluorimetry (ΔTm); settings: read-out: ΔTm BRPF3
T4 sequence (Q9ULD4 589-693 limits assumed): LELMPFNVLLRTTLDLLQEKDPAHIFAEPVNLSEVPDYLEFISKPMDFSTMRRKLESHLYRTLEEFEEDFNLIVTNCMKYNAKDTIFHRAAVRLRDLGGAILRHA

[7] = test system: GFP chimerized to multimerized CREBBP bromodomains in U2OS cells; experiment: Fluorescence recovery after photobleaching (FRAP) assay; format: cell-based
Method: To determine the utility of (R)-2 in a cellular setting a FRAP assay was conducted.
The bleached area is indicated by a red circle. B) Half times of fluorescence recovery (t1/2) of U2OS cells expressing green fluorescent protein (GFP) chimerized to multimerized CREBBP bromodomains with or without 2.5 μM SAHA (indicated by †).
CREBBP bromodomain from chromatin. A) Time dependence of fluorescent recovery in the bleached area of U2OS cells expressing GFP chimerised to multimerised CREBBP bromodomains. Curves represent the means at each time point of 15 cells in each group (see Figure 3A for representative images of cell nuclei). B) Half times of fluorescence recovery (t½) of cells expressing GFP chimerised to multimerised CREBBP bromodomains. Bars represent the mean t½ calculated from individual recovery curves of 15 cells per group. * […]
as §5
MicroCal™ Origin software package. […]
crystallization robot (TTP Labtech, Royston UK).
50+100 nl). […] All crystallizations were carried out […]
followed by manual building in COOT42.

[8] = biological target: T5, BRD9 (Homo sapiens, UniProt Q9H8M2); experiment: Differential scanning fluorimetry (ΔTm); settings: read-out: ΔTm BRD9
T5 sequence (Q9H8M2 136-240 limits assumed): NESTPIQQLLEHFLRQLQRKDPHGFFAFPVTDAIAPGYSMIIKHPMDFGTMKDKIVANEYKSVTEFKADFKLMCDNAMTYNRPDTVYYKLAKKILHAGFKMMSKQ

[9] = biological target: PB1(1) (Homo sapiens, UniProt Q86U86); experiment: Differential scanning fluorimetry (ΔTm); settings: read-out: ΔTm PB1(1)
Sequence of PB1(1) (Q86U86 41-151 limits assumed): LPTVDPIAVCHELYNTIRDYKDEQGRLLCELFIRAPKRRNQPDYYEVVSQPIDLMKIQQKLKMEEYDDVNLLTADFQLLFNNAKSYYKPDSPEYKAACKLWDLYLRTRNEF
Method: (§7) Differential Scanning Fluorimetry: Bromodomain ΔTm assay was performed as reported previously,34 with protein at a final concentration of 2 µM and compound at 10 µM.

[10] = biological target: LOC93349A (Homo sapiens, UniProt Q9H930); experiment: Differential scanning fluorimetry (ΔTm); settings: read-out: ΔTm LOC93349A
Sequence of LOC93349A (Q9H930 467-570 limits assumed): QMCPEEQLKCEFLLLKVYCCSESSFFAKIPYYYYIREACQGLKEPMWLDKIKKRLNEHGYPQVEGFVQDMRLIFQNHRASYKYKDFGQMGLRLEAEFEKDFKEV
Method: as §7

[11] = biological target: T6, CREBBP (Homo sapiens, UniProt Q92793); experiment: Differential scanning fluorimetry (ΔTm); format: binding; settings: DSF; protein 2 µM, compound 10 µM
T6 construct: amplify the bromodomain region of the; made in house
T6 sequence (Q92793 1085-1192 limits assumed): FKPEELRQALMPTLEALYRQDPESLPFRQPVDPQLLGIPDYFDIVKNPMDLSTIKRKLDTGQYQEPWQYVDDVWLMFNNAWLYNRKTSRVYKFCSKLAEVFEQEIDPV

[12] = biological target: T7, PCAF (Homo sapiens, UniProt Q92831); experiment: Differential scanning fluorimetry (ΔTm); settings: read-out: ΔTm PCAF
T7 sequence (Q92831 723-827 limits assumed): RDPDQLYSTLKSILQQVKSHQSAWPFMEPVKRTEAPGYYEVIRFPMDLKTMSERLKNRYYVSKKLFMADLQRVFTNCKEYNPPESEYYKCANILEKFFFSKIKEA

[13] = biological target: T1, CREBBP bromodomain; set-up: method as in PMID 21804994, PMID 21851057; settings: cited from earlier work
[14] = peptide and protein concentration = 25 nM, range in parentheses, read-out: IC50/nM vs CREBBP

T1 sequence (Q92793 1085-1192 limits assumed): as the sequence (Q92793 1085-1192 limits assumed) above

SMILES: COc1ccc2c(c1)CCCN2CCCNC(=O)c1cccc2c1N[C@H](C)C(=O)N2 [(R)-6]
IC50 [1, 14]: 1410 nM

SMILES: COc1ccc2c(c1)N(CCCNC(=O)c1cccc3c1N[C@H](C)C(=O)N3)CCC2 [(R)-2]
ΔTm at 10 µM [2]: < 0.5 °C | ΔTm at 10 µM [3]: 0.7 °C | −TΔS of binding to BRD4 [4]: -1.36 kcal/mol | ΔH of binding to BRD4 ([4]; error = error in fitting): -6.42 ± 0.12 kcal/mol | TΔS of binding to CREBBP [5]: -2.40 kcal/mol | ΔH of binding to CREBBP ([5]; error = error in fitting): -6.12 ± 0.04 kcal/mol | ΔTm at 10 µM [6]: 0.5 °C | half time of fluorescence recovery (t1/2) compared to wild-type cells ([7]; 1, 5, 10 µM (R)-2 in presence of 2.5 μM SAHA): dose-dependently reduced | displacement of CREBBP bromodomain from chromatin (FRAP) ([7]; 1, 5, 10 µM, with 2.5 μM SAHA): can displace the CREBBP bromodomain from chromatin | ΔTm at 10 µM [8]: < 1.1 °C | ΔTm at 10 µM [9]: < 0.1 °C | ΔTm at 10 µM [10]: 0.3 °C | ΔTm at 10 µM [11]: 5.4 °C | ΔTm at 10 µM [12]: 0 °C

SMILES: COc1ccc2c(c1)N(CCCNC(=O)c1cc(F)cc3c1N[C@H](C)C(=O)N3)CCC2 [(R)-7]
IC50 [1, 14]: 1530 nM

SMILES: COc1ccc2c(c1)N(CCCNC(=O)c1c(F)ccc3c1N[C@H](C)C(=O)N3)CCC2 [(R)-8]
IC50 [1, 14]: 2550 nM

SMILES: CN1CCCC1=O [N-methyl-2-pyrrolidone (NMP), N-methyl-2-pyrrolidone]
IC50 ([13]; AlphaScreen): 1900 µM | ligand efficiency ([13]; from AlphaScreen IC50 vs CREBBP bromodomain): 0.54

Continued, values first:

IC50 ([1]; read-out: CREBBP IC50): 51000 nM
SMILES: CC1Oc2c(cccc2C(=O)NCCCN2CCCc3ccccc32)NC1=O (stereo not shown) [compound 4]

IC50 ([1]; read-out: CREBBP IC50): 77000 nM
SMILES: CC1Oc2c(cccc2C(=O)NCCN2CCc3ccccc32)NC1=O (stereo not shown) [compound 3]

IC50 [1, 14]: 6870 nM
SMILES: C[C@@H]1Nc2c(cccc2C(=O)NCCCN2CCCc3ccccc32)NC1=O [(S)-1]

IC50 [1, 14]: 549 nM
SMILES: C[C@H]1Nc2c(cccc2C(=O)NCCCN2CCOc3ccccc32)NC1=O [(R)-5]

IC50 [1, 14]: 758 nM | IC50 ([1]; read-out: CREBBP IC50): 760 nM
SMILES: C[C@H]1Nc2c(cccc2C(=O)NCCCN2CCCc3ccccc32)NC1=O [(R)-1]
